# Test results as given in PubChem BioAssay (NCI).
#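 The concentration for 50% growth inhibition is given as GI50. TGI is the concentration that stops growth completely.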
# How the values were obtained:
# Test in all cases: NCI tumour cell line growth inhibition, 384-well format
# [1] = system: HCC-2998 colon
# [2] = system: LOX IMVI melanoma
# [3] = system: CCRF-CEM leukemia
# [4] = system: TK-10 renal
# [5] = system: RXF 393 renal
# [6] = system: HL-60(TB) leukemia
# [7] = system: KM12 colon
# [8] = system: SF-295 CNS
# [9] = system: COLO 205 colon
# [10] = system: UACC-257 melanoma
# [11] = system: 786-0 renal
# [12] = system: T-47D breast
# [13] = system: SR leukemia
# [14] = system: SW-620 colon
# [15] = system: RPMI-8226 leukemia
# [16] = system: K-562 leukemia
# [17] = system: SN12C renal
# [18] = system: SK-MEL-28 melanoma
# [19] = system: SF-268 CNS
# [20] = system: MDA-MB-231 breast
# [21] = system: OVCAR-5 ovarian
# [22] = system: NCI-H322M lung
# [23] = system: MALME-3M melanoma
# [24] = system: OVCAR-4 ovarian
# [25] = system: CAKI-1 renal
# [26] = system: HS 578T breast
# [27] = system: IGROV1 ovarian
# [28] = system: UACC-62 melanoma
# [29] = system: ACHN renal
# [30] = system: NCI-H23 lung
# [31] = system: DU-145 prostate
# [32] = system: SK-MEL-2 melanoma
# [33] = system: HOP-92 NSCLC
# [34] = system: NCI-H522 lung
# [35] = system: SNB-75 CNS
# [36] = system: A498 renal
# [37] = system: SNB-19 CNS
# [38] = system: SK-OV-3 ovarian
# [39] = system: U251 glioblastoma
# [40] = system: NCI/ADR-RES ovarian
# [41] = system: SF-539 CNS
# [42] = system: MDA-MB-468 breast
# [43] = system: MCF7 breast
# [44] = system: HOP-62 NSCLC
# [45] = system: UO-31 renal
# [46] = system: SK-MEL-5 melanoma
# [47] = system: OVCAR-3 ovarian
smiles,measurement,setting,value
C=CC(=O)Nc1cc(C)ccc1Nc1nc(Nc2cc(OC)ncc2C)ncc1C(F)(F)F,GI50,[1],123 nM
same,TGI,[1],376 nM
same,GI50,[2],169 nM
same,TGI,[2],423 nM
same,GI50,[3],1710 nM
same,TGI,[3],3400 nM
same,GI50,[4],328 nM
same,TGI,[4],884 nM
same,GI50,[5],215 nM
same,TGI,[5],766 nM
same,GI50,[6],136 nM
same,TGI,[6],1070 nM
same,GI50,[7],444 nM
same,TGI,[7],> 100000 nM
same,GI50,[8],3610 nM
same,TGI,[8],> 100000 nM
same,GI50,[9],75.3 nM
same,TGI,[9],1120 nM
same,GI50,[10],117 nM
same,TGI,[10],390 nM
same,GI50,[11],853 nM
same,TGI,[11],> 100000 nM
same,GI50,[12],813 nM
same,TGI,[12],5380 nM
same,GI50,[13],1790 nM
same,TGI,[13],3180 nM
same,GI50,[14],405 nM
same,TGI,[14],1680 nM
same,GI50,[15],232 nM
same,TGI,[15],1170 nM
same,GI50,[16],1520 nM
same,TGI,[16],> 100000 nM
same,GI50,[17],321 nM
same,TGI,[17],2180 nM
same,GI50,[18],86.6 nM
same,TGI,[18],387 nM
same,GI50,[19],1500 nM
same,TGI,[19],5940 nM
same,GI50,[20],283 nM
same,TGI,[20],1100 nM
same,GI50,[21],279 nM
same,TGI,[21],1500 nM
same,GI50,[22],570 nM
same,TGI,[22],3890 nM
same,GI50,[23],16.1 nM
same,TGI,[23],65.8 nM
same,GI50,[24],394 nM
same,TGI,[24],7500 nM
same,GI50,[25],401 nM
same,TGI,[25],1440 nM
same,GI50,[26],429 nM
same,TGI,[26],1850 nM
same,GI50,[27],233 nM
same,TGI,[27],906 nM
same,GI50,[28],59.9 nM
same,TGI,[28],381 nM
same,GI50,[29],374 nM
same,TGI,[29],1820 nM
same,GI50,[30],192 nM
same,TGI,[30],661 nM
same,GI50,[31],865 nM
same,TGI,[31],3600 nM
same,GI50,[32],113 nM
same,TGI,[32],271 nM
same,GI50,[33],282 nM
same,TGI,[33],700 nM
same,GI50,[34],310 nM
same,TGI,[34],1480 nM
same,GI50,[35],336 nM
same,TGI,[35],1290 nM
same,GI50,[36],479 nM
same,TGI,[36],1900 nM
same,GI50,[37],786 nM
same,TGI,[37],3430 nM
same,GI50,[38],621 nM
same,TGI,[38],4210 nM
same,GI50,[39],951 nM
same,TGI,[39],2560 nM
same,GI50,[40],1030 nM
same,TGI,[40],2590 nM
same,GI50,[41],362 nM
same,TGI,[41],1550 nM
same,GI50,[42],1150 nM
same,TGI,[42],2570 nM
same,GI50,[43],690 nM
same,TGI,[43],4130 nM
same,GI50,[44],725 nM
same,TGI,[44],2620 nM
same,GI50,[45],394 nM
same,TGI,[45],2880 nM
same,GI50,[46],147 nM
same,TGI,[46],1970 nM
same,GI50,[47],447 nM
same,TGI,[47],3030 nM
